We go through eleven compounds from ChEMBL document CHEMBL4342421, “Current scenario of tetrazole hybrids for antibacterial activity” (Eur J Med Chem, 2019).

The structures appear in SMILES notation. Values after ≈ are worked out from the molar mass of the structure shown.

For test [1], the system named is Staphylococcus aureus. In words: Antimicrobial activity against Staphylococcus aureus ATCC 25923 assessed as zone of inhibition at 100 ug/ml after 24 hrs by disc diffusion method. Particulars: ATCC 25923, 24 h, read-out: IZ. It counts as functional.
A further test has as its system Klebsiella pneumoniae. In words: Antimicrobial activity against Klebsiella pneumoniae ATCC 700603 assessed as zone of inhibition at 100 ug/ml after 24 hrs by disc diffusion method. It counts as functional. Particulars: ATCC 700603, 24 h, read-out: IZ.
Another test deals with Streptococcus agalactiae. The test can be described thus: Antimicrobial activity against Streptococcus agalactiae 55118 assessed as zone of inhibition at 100 ug/ml after 24 hrs by disc diffusion method. It counts as functional. Particulars: Streptococcus agalactiae, 55118, 24 h; read-out: IZ.
The next test relates to Pichia norvegensis. In words: Antifungal activity against Candida mycoderma after 24 hrs. It counts as functional.
Test [2] has as its system Candida albicans. The test can be described thus: Antifungal activity against Candida albicans ATCC 76615 after 24 hrs. It counts as functional. Particulars: ATCC 76615, 24 h.
The subject of the next test is Shigella dysenteriae. The test can be described thus: Antimicrobial activity against Shigella dysenteriae after 24 hrs by two-fold broth serial dilution method. In kind it is functional.
Test [3] has as its system Pseudomonas aeruginosa. The test can be described thus: Antimicrobial activity against Pseudomonas aeruginosa ATCC 27853 after 24 hrs by two-fold broth serial dilution method. In kind it is functional. Particulars: ATCC 27853, 24 h.
For the next test, the system named is Micrococcus luteus. The test can be described thus: Antibacterial activity against Micrococcus luteus ATCC 4698 after 24 hrs by two-fold broth serial dilution method. Particulars: ATCC 4698, 24 h. It counts as functional.
Test [4] relates to Staphylococcus aureus. The test can be described thus: Antibacterial activity against methicillin resistant Staphylococcus aureus N315 after 24 hrs by two-fold broth serial dilution method. It counts as functional. Particulars: N315, 24 h.
The subject of test [5] is Bacillus subtilis. In words: Antibacterial activity against Bacillus subtilis ATCC 21216 after 24 hrs by two-fold broth serial dilution method. It counts as functional. Particulars: ATCC 21216, 24 h.
Test [6] has as its system Aspergillus flavus. In words: Antifungal activity against Aspergillus flavus after 24 hrs. In kind it is functional.
The test system of test [7] is Escherichia coli. The test can be described thus: Antimicrobial activity against Escherichia coli JM 109 after 24 hrs by two-fold broth serial dilution method. It counts as functional. Particulars: JM 109, 24 h.
A further test concerns Saccharomyces cerevisiae. In words: Antifungal activity against Saccharomyces cerevisiae after 24 hrs. In kind it is functional.
The subject of a further test is Cyberlindnera jadinii. The test can be described thus: Antifungal activity against Candida utilis after 24 hrs. It counts as functional. Particulars: Williopsis jadinii.
Test [8] concerns Bacillus cereus. The test can be described thus: Antimicrobial activity against Bacillus cereus. In kind it is functional.
Test [9] deals with Candida albicans. The test can be described thus: Antifungal activity against Candida albicans. It counts as functional.
Test [10] deals with Candida albicans. In words: Antifungal activity against Candida albicans assessed as zone of inhibition at 250 ug/ml. It counts as functional. Particulars: read-out: IZ.
The test system of test [11] is Pseudomonas aeruginosa. The test can be described thus: Antimicrobial activity against Pseudomonas aeruginosa assessed as zone of inhibition at 250 ug/ml. Particulars: read-out: IZ. In kind it is functional.
The test system of test [12] is Bacillus cereus. In words: Antimicrobial activity against Bacillus cereus assessed as zone of inhibition at 250 ug/ml. Particulars: read-out: IZ. In kind it is functional.
Test [13] concerns Aspergillus niger. The test can be described thus: Antifungal activity against Aspergillus niger assessed as zone of inhibition at 250 ug/ml. It counts as functional. Particulars: read-out: IZ.
For test [14], the system named is Staphylococcus aureus. The test can be described thus: Antimicrobial activity against Staphylococcus aureus. It counts as functional.
For test [15], the system named is Aspergillus niger. The test can be described thus: Antifungal activity against Aspergillus niger. In kind it is functional.
The test system of test [16] is Escherichia coli. The test can be described thus: Antimicrobial activity against Escherichia coli assessed as zone of inhibition at 250 ug/ml after 24 hrs by disk diffusion method. In kind it is functional. Particulars: read-out: IZ.
The test system of test [17] is Pseudomonas aeruginosa. In words: Antimicrobial activity against Pseudomonas aeruginosa. It counts as functional.
Test [18] relates to Escherichia coli. In words: Antimicrobial activity against Escherichia coli assessed as zone of inhibition at 250 ug/ml. It counts as functional. Particulars: read-out: IZ.
Test [19] deals with Escherichia coli. In words: Antimicrobial activity against Escherichia coli. In kind it is functional.
The subject of test [20] is Staphylococcus aureus. The test can be described thus: Antimicrobial activity against Staphylococcus aureus assessed as zone of inhibition at 250 ug/ml. It counts as functional. Particulars: read-out: IZ.
The next test has as its system Salmonella typhimurium. The test can be described thus: Antimicrobial activity against Salmonella typhimurium. It counts as functional, Salmonella enterica subsp. enterica serovar Typhimurium. Particulars: Salmonella enterica.
A further test deals with Proteus mirabilis. In words: Antimicrobial activity against Proteus mirabilis. It counts as functional.
For a further test, the system named is Proteus vulgaris. The test can be described thus: Antimicrobial activity against Proteus vulgaris. It counts as functional.
In a further test the test system is Bacillus thuringiensis. The test can be described thus: Antimicrobial activity against Bacillus thuringiensis. In kind it is functional.
A further test has as its system Streptococcus pneumoniae. In words: Antimicrobial activity against Streptococcus pneumoniae. It counts as functional.
The next test relates to Prescottella equi. In words: Antimicrobial activity against Rhodococcus equi. It counts as functional. Particulars: Rhodococcus (subgen. Prescottella) equi.
The test system of test [21] is Bacillus subtilis. The test can be described thus: Antimicrobial activity against Bacillus subtilis. It counts as functional.
For test [22], the system named is Aspergillus flavus. In words: Antifungal activity against Aspergillus flavus. It counts as functional.
The test system of another test is Fusarium oxysporum. The test can be described thus: Antifungal activity against Fusarium oxysporum. It counts as functional.

Consider `CCCn1nnnc1Sc1c(OC)nc(N)nc1OC`, for which the zone of inhibition at 100 µg/mL with Staphylococcus aureus [1], in the test on Klebsiella pneumoniae and with Streptococcus agalactiae was 24 mm throughout.

For the compound `Cc1cc(=O)oc2cc(OCC(O)Cn3nnnc3C)ccc12` (stereo not drawn), the MIC against Pichia norvegensis, in the test with Candida albicans [2], against Shigella dysenteriae, in the test on Pseudomonas aeruginosa [3], against Micrococcus luteus and with Staphylococcus aureus [4] was 4 to 512 µg/mL (≈ 12.6 to 1620 µM) each time. Besides, the MIC in the test on Bacillus subtilis [5], with Aspergillus flavus [6], with Escherichia coli [7], with Saccharomyces cerevisiae and in the test on Cyberlindnera jadinii was 4 to 512 µg/mL (≈ 12.6 to 1620 µM) throughout.

`Clc1ccc(-c2nnnn2-c2nc3ccccc3s2)cc1`: the MIC against Bacillus cereus [8], in the test with Candida albicans [9], in the test with Staphylococcus aureus [14], in the test on Aspergillus niger [15], against Pseudomonas aeruginosa [17] and against Escherichia coli [19] was 50 to 100 µg/mL (≈ 159 to 319 µM) in each case. Also, the zone of inhibition at 250 µg/mL was 16 to 26 mm in the test on Candida albicans [10]; 16 to 26 mm in the test with Pseudomonas aeruginosa [11]; 16 to 26 mm in the test with Bacillus cereus [12]; 16 to 26 mm with Aspergillus niger [13]; 18 to 26 mm in the test on Escherichia coli [16]; 16 to 26 mm with Escherichia coli [18]. Further, the zone of inhibition at 250 µg/mL in the test on Staphylococcus aureus [20] lay in the range of 16 to 26 mm.

As for `COc1nc(N)nc(OC)c1Sc1nnnn1CC1CCCCC1`, the zone of inhibition at 100 µg/mL in the test with Staphylococcus aureus [1], in the test with Klebsiella pneumoniae and with Streptococcus agalactiae was 10 to 24 mm in each case.

With `CCCCn1nnnc1Sc1c(OC)nc(N)nc1OC`, the zone of inhibition at 100 µg/mL in the test with Staphylococcus aureus [1], in the test with Klebsiella pneumoniae and in the test on Streptococcus agalactiae was 10 to 24 mm in each case.

In the case of `c1ccc(N2CCN(c3ncnc4c3Sc3nnnn3N4)CC2)cc1`, the MIC against Salmonella typhimurium, against Proteus mirabilis, against Proteus vulgaris, against Bacillus thuringiensis, against Streptococcus pneumoniae and against Prescottella equi was 51 to 410 µg/mL (≈ 144 to 1160 µM) throughout. In addition, the MIC against Bacillus subtilis [21] fell in the range of 51 to 410 µg/mL (≈ 144 to 1160 µM).

Turning to `c1ccc(-n2cc(-c3nnn[nH]3)nn2)cc1`, the minimal inhibitory concentration (MIC) against Aspergillus flavus [22], against Fusarium oxysporum and against Aspergillus niger [15] was 100 µg/mL (≈ 469 µM) in each case.

Turning to `Clc1ccc(-n2cc(-c3nnn[nH]3)nn2)cc1`, the MIC in the test with Aspergillus flavus [22], with Fusarium oxysporum and with Aspergillus niger [15] was 100 µg/mL (≈ 404 µM) in each case.

As to `Cc1cc(=O)oc2cc(OCC(O)Cn3cnnn3)ccc12` (stereo not drawn), the MIC against Pichia norvegensis, in the test with Candida albicans [2], with Shigella dysenteriae, against Pseudomonas aeruginosa [3], with Micrococcus luteus and against Staphylococcus aureus [4] was 8 to 512 µg/mL (≈ 26.5 to 1690 µM) in each case. In addition, the MIC with Bacillus subtilis [5], with Aspergillus flavus [6], in the test on Escherichia coli [7], in the test with Saccharomyces cerevisiae and with Cyberlindnera jadinii was 8 to 512 µg/mL (≈ 26.5 to 1690 µM) throughout.

`O=[N+]([O-])c1ccc(-c2nnnn2-c2nc3ccccc3s2)cc1`: the minimum inhibitory concentration (MIC) against Bacillus cereus [8], in the test on Candida albicans [9], in the test with Staphylococcus aureus [14], in the test with Aspergillus niger [15], with Pseudomonas aeruginosa [17] and against Escherichia coli [19] was 50 to 100 µg/mL (≈ 154 to 308 µM) each time. The zone of inhibition at 250 µg/mL with Candida albicans [10] was in the range of 16 to 26 mm; with Pseudomonas aeruginosa [11], 16 to 26 mm; in the test on Bacillus cereus [12], 16 to 26 mm; with Aspergillus niger [13], 16 to 26 mm; with Escherichia coli [16] it was 18 to 26 mm; with Escherichia coli [18], 16 to 26 mm. The zone of inhibition at 250 µg/mL with Staphylococcus aureus [20] lay within 16 to 26 mm.

For the compound `COc1nc(N)nc(OC)c1Sc1nnnn1CC1CC1`, the zone of inhibition at 100 µg/mL in the test with Staphylococcus aureus [1], with Klebsiella pneumoniae and in the test on Streptococcus agalactiae was 10 to 24 mm each time.
